Reference: US20260125374A1, “PI3K-ALPHA INHIBITORS AND METHODS OF MAKING AND USING THE SAME” (Relay Therapeutics, Inc., priority 2021, published 2026)
Marks after values point to notes of the source that are not given here.

Assays:
[1] = Salt screening (XRPD, chiral purity of hits); format: physicochemical
Procedure: Based on the pKa of I-1 free form, 23 counter ions were selected as salt/cocrystal forming agents. Methanol, acetone and isopropyl acetate were used as screening solvents. 1.0 equivalent of selected counter ions/coformers was applied for salt screening. Slurry equilibration, slow evaporation and anti-solvent addition were used as crystallization methods. In total, about 70 screening experiments were conducted.
About 50 mg of I-1 Form A were added to a suitable amount of solvent and 1.0 equivalent of counter ions were added under stirring at 50° C. for 2 hours and then at 25° C. for at least 12 hours. MeOH, acetone and IPAc were used as screening solvents.
Obtained suspensions were taken out and centrifuged. Solids obtained were analyzed by XRPD and salt screening results were summarized in Table 5.1, Table 5.2, and Table 5.3.

[2] = cited from earlier work
[3] = Light and glassware influence on racemization of II-1; format: physicochemical
Procedure: The effect of glassware surface pH and light on II-1 racemization was evaluated.

[4] = Polymorph screening (equilibration, anti-solvent, slow evaporation, slow cooling, temperature cycling, heating-cooling; XRPD and SFC); format: physicochemical; details: for ee %(SFC): 6 days
Procedure: This polymorph screening program of compound I-1 free form was performed with two batches of the pure enantiomer. Both batches are crystalline and is assigned as Form A. The polymorphic behaviors of the enantiomer were investigated by equilibration at 25° C. and 50° C., equilibration under a temperature cycle, crystallization from hot saturated solutions by slow cooling, slow evaporation, precipitation by addition of anti-solvent, and DSC heating-cooling cycle experiments. Relative stability of identified polymorphs was investigated by competitive slurry experiments.
About 50 mg of I-1 Form A was weighed into a 2 mL glass vial and equilibrated in suitable amount of solvents (pretreated by molecular sieves) at 25° C. for 2 weeks with a stirring plate and with protection from light. Obtained suspensions were filtered with 0.45 μm nylon membrane and the solid parts (wet cake) were investigated by XRPD. When differences were observed, additional investigations were performed (e.g. DSC, TGA, ^1H-NMR, SFC).
About 50 mg of I-1 Form A was weighed into 2 mL glass vials and equilibrated in suitable amount of solvents (pretreated by molecular sieves) at 50° C. for 10 days with a stirring plate and with protection from light. Obtained suspensions were filtered with 0.45 μm nylon membrane and the solid parts (wet cake) were investigated by XRPD. When differences were observed, additional investigation was performed (e.g. DSC, TGA, ^1H-NMR, SFC).
I-1 Form A was dissolved in a good solvent. […] The solvents used were pretreated by molecular sieve. Precipitates were collected by filtration. The solid part (wet cake) was investigated by XRPD. […] When differences were observed, additional investigations were performed (e.g. DSC, TGA, ^1H-NMR, SFC).
Based on approximate solubility results, I-1 Form A was dissolved in suitable amount of solvents (pretreated by molecular sieves). Obtained solutions were filtered by 0.45 μm nylon filter. […] Solid residues were examined for their polymorphic form. When differences were observed, additional investigations were performed (e.g. DSC, TGA, ^1H-NMR, SFC).
Approximate 50 mg of batch I-1 Form A were dissolved in the minimal amount of selected solvents (without pretreatment by molecular sieves) at 50° C. Obtained solutions were filtered by 0.45 μm nylon filter. […] Precipitates were collected by filtration. The solid parts (wet cake) were investigated by XRPD. When differences were observed, additional investigations were performed (e.g. DSC, TGA, ^1H-NMR, SFC). When no precipitation was obtained or only a few solids were obtained, the solutions were placed at 5° C. for crystallization.
About 50 mg of I-1 Form A was equilibrated in different solvents (pretreated by molecular sieves) under a temperature cycle between 5° C. to 50° C. at a heating/cooling rate of 0.2° C./min for 10 cycles and with protection from light. After 10 cycles, precipitates were collected at 5° C. by filtration. The solid parts (wet cake) were investigated by XRPD. When differences were observed, additional investigations were performed (e.g. DSC, TGA, 1H-NMR, SFC).
Polymorphic behavior of I-1 Form A was investigated by two different heating-cooling cycles of DSC. Cycle 1:30° C. to 280° C. at 10° C./min; 280° C. to −20° C. at 20° C./min; reheat to 300° C. at 10° C./min. Cycle 2:30° C. to 280° C. at 10° C./min; 280° C. to-20° C. at 2° C./min; reheat to 300° C. at 10° C./min.

[5] = crystalline hits of salt screening, listed as III-6 Form A
[6] = crystalline hits of salt screening, listed as I-2 Form A
[7] = crystalline hits of salt screening, listed as III-2 Form A
[8] = crystalline hits of salt screening, listed as III-2 Form B
[9] = equilibration of II-1 in 1,4-dioxane, 50° C.
[10] = crystalline hit dried at 50° C. for 21 h
[11] = crystalline hits of salt screening, listed as I-5 Form A
[12] = crystalline hits of salt screening, listed as I-5 Form B

For `N#Cc1c(-c2cc(NC(=O)c3cc(F)cc(C(F)(F)F)c3)c3c(c2)C(=O)NC3c2cc(F)ccc2Cl)ccc2ncnn12` (stereo not shown) [III-6], the “Salt screening result (slurry crystallization)” value ([1]; 1.0 equiv. naphthalene-2-sulfonic acid, Acetone) was “+ (Salt hits)”, the “Chiral purity (by HPLC)” value [1, 5] was 43.2% and the “Crystallinity (By XRPD)” value [1, 5] was “low”. The “Chiral purity of salt screening solid” value ([1]; slurry, 1.0 equiv. naphthalene-2-sulfonic acid, Acetone) was “Chiral purity: 43.2%”.
For `O=C(O)CC(O)(CC(=O)O)C(=O)O` [Citric acid], the “pKa(s)” value [2] is given as 3.12, 4.76, 6.39.
For `N#Cc1c(-c2cc(NC(=O)c3cc(F)cc(C(F)(F)F)c3)c3c(c2)C(=O)N[C@H]3c2cc(F)ccc2Cl)ccc2ncnn12` [Compound I-2], the “Salt screening result (slurry crystallization)” value ([1]; 1.0 equiv. HCl, Isopropyl acetate) was “+ (Salt hits)”, the “Chiral purity (by HPLC)” value [1, 6] was 89.7% and the “Crystallinity (By XRPD)” value [1, 6] was “Low”. The “Chiral purity of salt screening solid” value ([1]; slurry, 1.0 equiv. HCl, Isopropyl acetate) was “Chiral purity: 89.7%”.
For `N#Cc1c(-c2cc(NC(=O)c3cc(F)cc(C(F)(F)F)c3)c3c(c2)C(=O)NC3c2cc(F)ccc2Cl)ccc2ncnn12` (stereo not shown) [III-2], the “Salt screening result (slurry crystallization)” value ([1]; 1.0 equiv. HCl, ACN (second block of table)) was “+ (III-2 Form B) (Salt hits)”, the “Salt screening result (slurry crystallization)” value ([1]; 1.0 equiv. HCl, Acetone) was “+ (III-2 Form A) (Salt hits)” and the “Salt screening result (slurry crystallization)” value ([1]; 1.0 equiv. HCl, Acetone (second block of table)) was “+ (III-2 Form A) (Salt hits)”. The “Chiral purity (by HPLC)” value [1, 7] was 30.8%, the “Crystallinity (By XRPD)” value [1, 7] was “Medium” and the “Chiral purity (by HPLC)” value [1, 8] was 20.3%. For the same compound, the “Crystallinity (By XRPD)” value [1, 8] was “Low”, the “Chiral purity of salt screening solid” value ([1]; slurry, 1.0 equiv. HCl, ACN (second block of table)) was “Chiral purity: 20.2%” and the “Chiral purity of salt screening solid” value ([1]; slurry, 1.0 equiv. HCl, Acetone) was “Chiral purity: 30.8%”. The “Chiral purity of salt screening solid” value ([1]; slurry, 1.0 equiv. HCl, Acetone (second block of table)) was “Chiral purity: 45.4%”.
In the case of `O=S(=O)(O)c1ccc2ccccc2c1` [Naphthalene-2-sulfonic acid], the “pKa(s)” value [2] is listed as 0.17.
For `N#Cc1c(-c2cc(NC(=O)c3cc(F)cc(C(F)(F)F)c3)c3c(c2)C(=O)N[C@@H]3c2cc(F)ccc2Cl)ccc2ncnn12` [II-1, (S)-N-(3-(2-chloro-5-fluorophenyl)-6-(5-cyano-[1,2,4]triazolo[1,5-a]pyridin-6-yl)-1-oxoisoindolin-4-yl)-3-fluoro-5-(trifluoromethyl)benzamide], the racemization in solution ([3]; basic glassware, promoted by light) was “Noticeable racemization”, the racemization in solution ([3]; neutral and acidic glassware, absence and presence of light, up to 13 days) was “no significant racemization” and the “XRPD (6 days)” value [4, 9] was “II-1 Form B”. The “ee %(SFC)” value [4, 9] was “ee %(SFC): −99.48%*”, the “ee %(SFC)” value ([4]; equilibration of II-1 in ACN/water(80:20, v/v), 50° C.) was “ee %(SFC): −99.24%*” and the “ee %(SFC)” value ([4]; equilibration of II-1 in EtOH/water(50:50, v/v), 50° C.) was “ee %(SFC): −99.78%*”. The “ee %(SFC)” value ([4]; equilibration of II-1 in Methanol, 50° C.) was “ee %(SFC): −99.66%*”, the “XRPD (6 days)” value ([4]; equilibration of II-1 in THF/water(85:15, v/v) a.w. 0.9, 25° C.) was “II-1 Form C (include the” and the “ee %(SFC)” value ([4]; equilibration of II-1 in THF/water(85:15, v/v), 25° C.) was “ee %(SFC): −99.34%*”.
In the case of `N#Cc1c(-c2cc(NC(=O)c3cc(F)cc(C(F)(F)F)c3)c3c(c2)C(=O)N[C@H]3c2cc(F)ccc2Cl)ccc2ncnn12` [Compound I-5], the “Salt screening result (anti-solvent)” value ([1]; 1.0 equiv. naphthalene-1,5-disulfonic acid, Acetone/MTBE) is reported as “+ (I-5 Form B) (Salt hits)”, the “Chiral purity of salt screening solid” value ([1]; anti-solvent, 1.0 equiv. naphthalene-1,5-disulfonic acid, Acetone/MTBE) is reported as “Chiral purity: 88.3%” and the “Chiral purity (by HPLC)” value [1, 10] is reported as “C. for 21 h: 100%”. For the same compound, the “Crystallinity (By XRPD)” value [1, 10] was “low crystallinity”, the “Chiral purity (by HPLC)” value [1, 11] was 100% dried at 50° and the “Crystallinity (By XRPD)” value [1, 11] was “Medium crystallinity”. For the same compound, the “Chiral purity (by HPLC)” value [1, 12] was 88.3% and the “Crystallinity (By XRPD)” value [1, 12] was “Medium”.
